± gives the expanded uncertainty stated by the source.
Settings: Crystal 2; DTA

Triple point temperature: 1114 ± 3 K
SMILES: [Br-].[Na+] [sodium bromide]
